From patent publication US11058676B2, “Quinolinone lysyl oxidase-like 2 inhibitors and uses thereof” (PHARMAKEA, INC., priority 2016, dated 2021)

Tested on: C57Bl/6 male mice
Assay: Mouse oropharyngeal bleomycin model of lung fibrosis
Assay type: in vivo
Details: dosed prophylactically at 60 mg/kg p.o.
Procedure: Example B-3: Mouse Oropharyngeal Bleomycin Model of Lung Fibrosis
Lung fibrosis is induced in C57Bl/6 male mice by administering bleomycin (0.1-4 U/kg) via oropharyngeal instillation. Mice are either pretreated with vehicle or test compound (1 day to 1 hour) orally, intraperitoneally, intravenously or subcutaneously before bleomycin installation (prophylactic dosing) or 7-14 days post bleomycin instillation (therapeutic dosing). The route and frequency of dosing are based on previously determined pharmacokinetic properties for the LOXL2 inhibitor in mouse. After bleomycin instillation animals are monitored daily for weight loss and clinical signs for 14-28 days prior to sacrifice. […] For histological examination, lung slices are stained with Masson's trichrome or Picro-Sirius red to measure cross-linked collagen as an indicator of fibrosis and an Ashcroft score of lung fibrotic and inflammatory damage determined. In addition, immunohistochemistry of fibrotic proteins such as a-smooth muscle actin can be recorded. […] After the acid hydrolysis, 25-100 μl of the supernatant is dried down, resuspended in 25 μl water and the hydroxyproline content determined by the addition of 0.5 ml Chloramine T solution (140 mg Chloramine T in 6.5 ml ddH2O+1 ml n-propanol+2.5 ml 1M sodium acetate) and incubation at room temperature for 20 min. […]

NCc1cc(=O)c2cc(Br)ccc2[nH]1 [Compound 1-3, 2-(Aminomethyl)-6-bromoquinolin-4(1H)-one]
efficacy in mouse oropharyngeal bleomycin model of lung fibrosis: efficacious
